What follows are compounds tested on Colon organoid.
Assay type: functional, Homo sapiens

First: O=C(O)c1ccc(-c2c[nH]c3ncc(-c4ccccc4)cc23)cc1C1CCCC1 [GSK-650394]
Second: Cc1cccc(-c2cnc3occ(-c4ccc(C(=O)O)c(C5CCCC5)c4)c3c2)c1
The “Cell Viability Ratio” value of the first is higher: 1.062 for the first, 0.9583 for the second.

First: COc1cc(N(C)c2ccnc3ccc(C(F)(F)F)cc23)cc(OC)c1OC
Second: CCOc1cn(-c2ccc(F)cc2C)nc1C(=O)Nc1ccc(Oc2ccnc3cc(OC)c(OC)cc23)c(F)c1
The “Cell Viability Ratio” value of the first is higher: 0.896 for the first, 0.8903 for the second.

First: CCCCN(Cc1ccccc1)C(=O)c1ccc(S(=O)(=O)Nc2ccccc2)cc1
Second: O=C(NCc1ccccc1)c1ccc(S(=O)(=O)NCc2ccccc2)cc1
The “Cell Viability Ratio” value of the first is higher: 1.3021 for the first, 1.216 for the second.

Compared with COc1ccc2c(c1)O[C@H](c1ccc(OC)c(OC)c1)C[C@@H]2NC(=O)C1(c2ccc3c(c2)OC(F)(F)O3)CC1 [A-1596584], NS(=O)(=O)c1cc(NC(=O)C2(c3ccccc3Cl)CC2)ccc1Oc1cccc(Cl)c1 [BAY-207] is lower in “Cell Viability Ratio” value: 0.985 for the first, 0.9336 for the second.

Compared with CN(C)C(=O)N1CC[C@H](NC2=Nc3cc(F)ccc3N(CC(F)F)c3ccc(Cl)cc32)C1, Cc1cnc(-c2cc(Cl)ccc2F)cc1-n1c(=O)n(CC(N)=O)c2cnccc21 [TP-008] is higher in “Cell Viability Ratio” value: 0.9552 for the first, 1.1125 for the second.

Compared with O=C(Nc1cnc(Oc2ccc(F)cc2)nc1)N1CCc2ncccc2[C@@H]1c1ccc(F)cc1 [BAY-899], Cc1c(C(=O)Nc2ccc(Oc3ccnc4[nH]cc(-c5ccccc5)c34)c(F)c2)c(=O)n(-c2ccc(F)cc2)n1C is lower in “Cell Viability Ratio” value: 1.086 for the first, 0.9213 for the second.

Going from CC(C)CC(=O)N1CCc2nc(-c3ccc(Br)cc3)nc(N(C)Cc3ccccc3)c2C1 [THPP-1-NC] to COCCOc1nc(-c2ccc(Cl)nc2)nc2c1CN(C(=O)c1ncn3ccccc13)CC2 [THPP-1], the “Cell Viability Ratio” value falls from 1.2658 to 1.038.

First: Cc1cn(-c2cc(NC(=O)c3ccc4c(c3)CN(c3cncnc3)C[C@@H]4C)cc(C(F)(F)F)c2)cn1
Second: CN1CCN(Cc2cc(NC(=O)c3ccc4c(c3)CN(c3ccccc3)CC4)cc(C(F)(F)F)c2)CC1
The “Cell Viability Ratio” value of the first is higher: 1.531 for the first, 1.189 for the second.

First: Cl.Cl.NC1(c2ccc(-c3nc4ccn5c(=O)[nH]nc5c4cc3-c3ccccc3)cc2)CCC1
Second: O=C(Nc1ccc(-n2nc(-c3cccnc3)cc2C(F)(F)F)cn1)c1ccc(-c2ccccc2)c(F)c1 [BI 2049]
The “Cell Viability Ratio” value of the first is higher: 1.463 for the first, 1.116 for the second.

Compared with C[C@H](NC(=O)c1cnc2n1[C@](C)(Cc1ccc(C#N)cc1)C(=O)N2c1cc(Cl)c(F)c(Cl)c1)C(=O)NC1(c2ccccn2)CC1 [BI 1950], C[C@H](c1ccc(F)cc1)N(Cc1ccc(Cl)c(C(=O)O)c1)C(=O)c1cnc2ccccc2c1 [PF-05257137] is higher in “Cell Viability Ratio” value: 0.9219 for the first, 1.055 for the second.

First: Cc1cc(NC(=O)c2cccc(S(F)(F)(F)(F)F)c2)cc(-n2ccn3nc(-c4cccnc4)cc23)c1 [BAY-309]
Second: O=C(NCCN1CCOCC1)c1ccc2c(c1)C(=O)c1ccc(Nc3ccc(F)c(NC(=O)c4ccccc4)c3)cc1CC2 [FS-694]
The “Cell Viability Ratio” value of the first is higher: 1.076 for the first, 0.8259 for the second.

First: CCNC(=O)c1cc2c(N3CCOC[C@@H]3C)ccnc2[nH]1
Second: CC(=O)N1CCC(c2ccc(C(=O)NC3=NCCN3)cc2C(F)(F)F)CC1 [BI 0054]
The “Cell Viability Ratio” value of the first is lower: 0.9047 for the first, 1.041 for the second.

Compared with O=C(NCc1ncc(C(F)(F)F)cc1Cl)c1ccc2c(c1)C1(CCS(=O)(=O)CC1)[C@@H](C1CC1)N2S(=O)(=O)c1ccc(F)cc1 [BAY-786], CO[C@@H](C)c1c(Nc2ccc([C@@H](N(C)C(=O)C3CCS(=O)(=O)CC3)C(F)(F)F)cc2)cnc2cc(Cl)nn12 [NVS-MALT1-C] is higher in “Cell Viability Ratio” value: 1.0741 for the first, 1.209 for the second.

Compared with C[C@H](c1ccnc(Nc2nc3ccc(-c4cc(N(C)C)ncn4)cc3[nH]2)c1)N1CCN(C(=O)CC(F)(F)F)CC1 [BAY-985], CN(C)c1ncnc(-c2ccc3nc(Nc4cc(CN5CCN(C(=O)CC(F)(F)F)CC5)ccn4)[nH]c3c2)c1Cl [BAY-440] is higher in “Cell Viability Ratio” value: 0.822 for the first, 0.922 for the second.

First: Cl.Cl.Cl.c1ccc(N2CCN(Cc3nc4ccccc4[nH]3)CC2)nc1
Second: O=c1nc(-c2ccccn2)sc2ccccc12 [BTZO-1]
The “Cell Viability Ratio” value of the first is higher: 0.9546 for the first, 0.8779 for the second.

First: CNC(=O)Nc1ccc2c(c1)[C@@]1(CC2)OC(=O)N(CC(=O)N(Cc2ccc(F)cc2)[C@@H](C)C(F)(F)F)C1=O [A-486]
Second: CNC(=O)Nc1ccc2c(c1)CC[C@@]21OC(=O)N(CC(=O)N(Cc2ccc(F)cc2)[C@@H](C)C(F)(F)F)C1=O [A-485]
The “Cell Viability Ratio” value of the first is higher: 0.9599 for the first, 0.9163 for the second.

First: CCCCN(CCCC)C(=O)CN1C[C@H](c2cc(OC)c3c(c2)OCO3)[C@@H](C(=O)O)[C@@H]1CC(C)(C)CCC.Cc1ccc(S(=O)(=O)O)cc1
Second: CCCCN(CCCC)C(=O)CN1C[C@@H](c2cc(OC)c3c(c2)OCO3)[C@H](C(=O)O)[C@H]1CC(C)(C)CCC.Cl
The “Cell Viability Ratio” value of the first is higher: 0.9627 for the first, 0.8768 for the second.

Compared with COc1cc(N[C@@H]2CCCC[C@]2(O)C(F)(F)F)ccc1F [BAY-9897], CC(=O)N1CCC(c2ccc(C(=O)NC(=N)N)cc2C(F)(F)F)CC1 [BI 9627] is lower in “Cell Viability Ratio” value: 0.9982 for the first, 0.903 for the second.

First: Cn1c(-c2csc(C3CCN(CC4=NC5N=CC=CC5N4)CC3)n2)nc2ccccc21 (stereo not drawn) [BAY-070]
Second: CN1CCN(c2cnc3c(C4CCN(C(=O)c5ccc(OC(F)(F)F)cc5N)CC4)ncnc3c2)CC1 [BAY-885]
The “Cell Viability Ratio” value of the first is higher: 0.9524 for the first, 0.9479 for the second.

First: CS(=O)(=O)c1cc(C2(NC(=O)c3cncc4c3cnn4-c3ccc(F)cc3)CC2)ccn1 [BI 639667]
Second: CN(C)C(=O)Cn1cc(-c2ccc(-c3cncc4ccccc34)cc2)cn1
The “Cell Viability Ratio” value of the first is lower: 0.9024 for the first, 0.9698 for the second.

First: CN(C)C(=O)/C(C#N)=C/c1ccc(-c2nc3cnc4[nH]ccc4c3n2C2CCCCC2)o1
Second: Cc1ccc(-c2cnc([C@@]3(O)CC[C@H](C(=O)O)C(C)(C)C3)s2)cc1Nc1cccc(C(F)(F)F)n1 [MRL-SYKi-NC]
The “Cell Viability Ratio” value of the first is lower: 0.9378 for the first, 1.002 for the second.

First: Cn1nc(C(=O)NCc2ccc(C(=O)O)cc2)cc1-c1ccc2[nH]ccc2c1 [BI 4395]
Second: Cc1ccc2[nH]c(CNCCCc3ccncc3)cc(=O)c2c1 [UCSF924NC]
The “Cell Viability Ratio” value of the first is lower: 1.056 for the first, 1.116 for the second.

Going from CCOC(=O)c1c(/C(C#N)=C\N)c2ccc(Cl)c(Cl)c2n1C to Cc1cc(-n2nc(Cc3cc(F)cc(C(F)(F)F)c3)nc2C)ccc1C(N)=O [TP-024], the “Cell Viability Ratio” value falls from 1.055 to 0.8967.

Compared with COc1cc(-c2cn([C@H]3CCc4c(F)cccc4N(CC(F)(F)F)C3=O)nn2)ccc1-n1cnc(C)c1, Cc1nc(Cc2cccc(C(F)(F)F)c2)sc1-c1ccc(C(N)=O)nc1 [TP-024n] is lower in “Cell Viability Ratio” value: 1.087 for the first, 1.0424 for the second.

Compared with O=C(O)[C@@H]1[C@@H](Cn2nnc3ccccc3c2=O)CC[C@H]1C(=O)c1ccc(OCCC2CCOCC2)cc1 [BAY-694], O=C(Nc1cccnn1)N1CC(C/C=C/c2cncc(Oc3ccc(C(F)(F)F)cn3)n2)C1 is lower in “Cell Viability Ratio” value: 1.051 for the first, 0.9954 for the second.

Compared with Cn1cncc1[C@@](O)(COc1ccc(C#N)cc1-c1ccc(OC(F)(F)F)cc1)c1ccc(C#N)cc1 [A-108], CO[C@@H](C)c1c(Nc2ccc([C@H](N(C)C(=O)C3CCS(=O)(=O)CC3)C(F)(F)F)cc2)cnc2cc(Cl)nn12 [NVS-MALT1] is lower in “Cell Viability Ratio” value: 0.984 for the first, 0.853 for the second.

With CCN(CC)S(=O)(=O)Nc1cccc(-c2ccc3c(NC(=O)C4CC4)n[nH]c3c2)c1 the “Cell Viability Ratio” value was 1.062.
